Measured values published in PMC10955127 (Frontiers in Pharmacology, 2024).

Assays:
rats = settings: highest dose tested; KS2; cited from earlier work
estrogen receptor [1] = system: estrogen receptor; parameters: method as in ToxCast database; settings: ref ToxCast database; cited from earlier work
estrogen receptor [2] = system: estrogen receptor; parameters: method as in ToxCast database; settings: ref ToxCast database; cited from earlier work; remark: listed apart in the source
TSHR = system: TSHR; parameters: method as in ToxCast database; settings: ref ToxCast database; cited from earlier work
[3] = ref PubChem or the ECHA database; cited from earlier work
estrogen receptor [4] = system: estrogen receptor; parameters: method as in ToxCast database; settings: ref ToxCast database; cited from earlier work; remark: listed apart in the source
[5] = KS2; cited from earlier work
thyroid pathway [6] = system: thyroid pathway; parameters: method as in ToxCast database; settings: ref ToxCast database; cited from earlier work
[7] = system: Thyroid (TR and TPO only); parameters: method as in ToxCast; settings: ref ToxCast, cited from earlier work
estrogen receptor [8] = system: estrogen receptor; parameters: method as in ToxCast database; settings: ref ToxCast database; cited from earlier work; remark: listed apart in the source
estrogen receptor [9] = system: estrogen receptor; parameters: method as in ToxCast database; settings: ref ToxCast database, cited from earlier work
thyroid pathway [10] = system: thyroid pathway; parameters: method as in ToxCast database; settings: ref ToxCast database; cited from earlier work; remark: listed apart in the source
[11] = In vitro skin penetration and metabolism, fresh viable pig skin on static Franz cells
From the text: Fresh viable pig skin (without hot steam treatment, by-product from meat industry) was obtained from a local, commercial butcher (Hammoor, Germany). The back skin was from female pigs (bred from “Dänische Landrasse” (female) and Pietrain (male) pigs, ~130 days old, 100 kg body weight). Pig skin samples were gently dry-shaved and washed with water before use. For the experiment, 2 replicate discs from each of 3 donors were used.
Skin of full-thickness was mounted on static Franz cells with a 4.9 cm² application area. The receptor compartment of the diffusion cell was filled with approx. 5 ml RF (1% BSA, 0.9% NaCl, 0.05% gentamycin sulfate in water), above a magnetic stirrer set to low rotation. […] The experiment was conducted using non-occluded conditions.
The dermal absorption was calculated as the total amount present within epidermis (without the amount in the total SC strips), dermis and RF.

estrogen receptor [12] = system: estrogen receptor; parameters: method as in ToxCast database; settings: ref ToxCast database; cited from earlier work; remark: listed apart in the source
Aromatase = system: Aromatase; parameters: method as in ToxCast database; settings: ref ToxCast database; cited from earlier work
thyroid pathway [13] = system: thyroid pathway; parameters: method as in ToxCast database; settings: ref ToxCast database; cited from earlier work; remark: listed apart in the source
[14] = 24 h after application of 0.5% BSal in formulation, mean ± SD, n = 6

For `O=C(O)c1ccccc1` [BA, benzoic acid], the “Reproductive toxicity NOAEL” value (rats) is given as “NOAEL 900 mg/kg bw (highest dose tested)”, the “Estrogen pathway mRNA induction: Call” value (estrogen receptor [1]) is given as “Negative” and the “Estrogen pathway Reporter protein Antagonist: Call” value (estrogen receptor [2]) is given as “Negative”. The “Thyroid pathway Regulation of transcription factor activity (TSHR): Call” value (TSHR) was “Negative”, the Vapor pressure [3] was 0.1 Pa and the “Estrogen pathway Cell Proliferation: Call” value (estrogen receptor [4]) was “Negative”. For the same compound, the “Developmental Toxicity NOAEL” value [5] was “NOAEL 1306 mg/kg bw”, the “Thyroid pathway Reporter protein Antagonist: Call” value (thyroid pathway [6]) was “Negative” and the “Thyroid (TR and TPO only): Experimental Data (call)” value ([7]; Tier 0) was “Negative”. The “Thyroid (TR and TPO only): assays active / assays” value [7] was 0/12 active, the “Estrogen pathway receptor binding: Call” value (estrogen receptor [8]) was “Negative” and the “Estrogen pathway Reporter protein Agonist: Call” value (estrogen receptor [9]) was “Positive”. The AC50 (estrogen receptor [9]; read-out: Estrogen pathway Reporter protein Agonist: AC50) was 7.54 µM, the “Thyroid pathway Reporter protein Agonist: Call” value (thyroid pathway [10]) was “Negative” and the “Dermal absorption of individual analytes” value ([11]; 24 h, epidermis + dermis + receptor fluid) was 1.2 ± 0.7 percentage of the applied dose. The Total recovery ([11]; 24 h after application of 0.5% BSal in formulation, SA corrected by the amount of SA present in the formulation) was 19.8 ± 17.2 percentage of the applied dose, the Dermis [11, 14] was 1.2 ± 0.7 percentage of the applied dose and the Epidermis [11, 14] was “< LOQ*”. For the same compound, the Receptor fluid [11, 14] was “< LOQ*”, the Stratum corneum [11, 14] was 16.8 ± 16.3 percentage of the applied dose and the Surface ([11]; 24 h after application of 0.5% BSal in formulation, mean ± SD, n = 6 skin discs (three donors)) was 1.7 ± 1.2 percentage of the applied dose. For the same compound, the “Estrogen pathway Dimerisation: Call” value (estrogen receptor [12]) was “Negative”, the “Steroidogenesis Aromatase: Call” value (Aromatase) was “Negative” and the “Thyroid pathway mRNA induction: Call” value (thyroid pathway [13]) was “Negative”.
